The results in this text go back to PubChem BioAssay AID1918993 (Molecular Pharmacology Branch, DTP, NCI, 2023).

The test system of the experiment is 233499-124-R-J3-PDC complex spheroid growth. Description: Anticancer human tumor 233499-124-R-J3-PDC patient-derived colon adenocarcinoma cell line growth inhibition [AhR]. As to conditions: for viability, T/C: stronger effect = lower value. In outline: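 Complex tumor spheroids co-cultured with HUVEC and human MSC stroma; AhR antagonists tested in combination with standard-of-care and investigational agents. Top concentration at or near clinical Cmax (else 10 microM), half-log dilutions; growth expressed as percent test/control.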

Where [1] appears, read: curve of first compound, second compound 0.1 µM.
The mark [2] stands for this setting: curve of first compound, second compound 0.316 µM.
Setting [3] is: curve of first compound, second compound 1 µM.
[4] abbreviates: curve of first compound, second compound 3.16 µM.
Setting [5] is: curve of first compound, second compound 10 µM.
The mark [6] stands for this setting: second compound 0.1 µM, first compound 0.0316 µM.
[7] abbreviates: second compound 0.1 µM, first compound 0.1 µM.
Where [8] appears, read: second compound 0.1 µM, first compound 0.316 µM.
Setting [9] is: second compound 0.1 µM, first compound 1 µM.
Setting [10] is: second compound 0.1 µM, first compound 3.16 µM.
Where [11] appears, read: second compound 0.1 µM, first compound 10 µM.
Where [12] appears, read: second compound 0.316 µM, first compound 0.0316 µM.
The mark [13] stands for this setting: second compound 0.316 µM, first compound 0.1 µM.
[14] abbreviates: second compound 0.316 µM, first compound 0.316 µM.
Where [15] appears, read: second compound 0.316 µM, first compound 1 µM.
Setting [16] is: second compound 0.316 µM, first compound 3.16 µM.
[17] abbreviates: second compound 0.316 µM, first compound 10 µM.
Where [18] appears, read: second compound 1 µM, first compound 0.0316 µM.
The mark [19] stands for this setting: second compound 1 µM, first compound 0.1 µM.
Setting [20] is: second compound 1 µM, first compound 0.316 µM.
The mark [21] stands for this setting: second compound 1 µM, first compound 1 µM.
Where [22] appears, read: second compound 1 µM, first compound 3.16 µM.
The mark [23] stands for this setting: second compound 1 µM, first compound 10 µM.
Setting [24] is: second compound 3.16 µM, first compound 0.0316 µM.
[25] abbreviates: second compound 3.16 µM, first compound 0.1 µM.
The mark [26] stands for this setting: second compound 3.16 µM, first compound 0.316 µM.
The mark [27] stands for this setting: second compound 3.16 µM, first compound 1 µM.
Where [28] appears, read: second compound 3.16 µM, first compound 3.16 µM.
Where [29] appears, read: second compound 3.16 µM, first compound 10 µM.
[30] abbreviates: second compound 10 µM, first compound 0.0316 µM.
Where [31] appears, read: second compound 10 µM, first compound 0.1 µM.
[32] abbreviates: second compound 10 µM, first compound 0.316 µM.
The mark [33] stands for this setting: second compound 10 µM, first compound 1 µM.
Where [34] appears, read: second compound 10 µM, first compound 3.16 µM.
[35] abbreviates: second compound 10 µM, first compound 10 µM.

Several values for one entry are separate records, joined by “and”; a condition that tells them apart may be missing. Identical values can stand only once.
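Further: spheroids exposed to agents for seven days before reading.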

`CC1COCCN1c1cc(C2(S(C)(=N)=O)CC2)nc(-c2ccnc3[nH]ccc23)n1` (stereo not given) + Cc1cncc(-c2nc(NCCc3c[nH]c4ccccc34)c3ncn(C(C)C)c3n2)c1: the IC50 (commonly the midpoint of a concentration-inhibition curve) is more than 10 µM under setting [1]; more than 10 µM under setting [2]; more than 10 µM under setting [3]; more than 10 µM under setting [4]; less than 0.0316 µM under setting [5]. The viability, T/C (usually the ratio of treated to control) by setting is: under setting [6], 99%; under setting [7], 90.3%; under setting [8], 95.1%; under setting [9], 95.1%; under setting [10], 93%; under setting [11], 81.2%. The viability, T/C is 80.7% under setting [12]; 71% under setting [13]; 61.6% under setting [14]; 91.2% under setting [15]; 92.7% under setting [16]; 78.1% under setting [17]. The viability, T/C runs as follows: under setting [18], 73.9%; under setting [19], 70.1%; under setting [20], 78.7%; under setting [21], 77.2%; under setting [22], 63.3%; under setting [23], 64.7%. Besides, the viability, T/C is 81.8% under setting [24]; 76% under setting [25]; 81.8% under setting [26]; 83.1% under setting [27]; 71.3% under setting [28]; 59.7% under setting [29]. The viability, T/C runs as follows: under setting [30], 11.2%; under setting [31], 14.3%; under setting [32], 20%; under setting [33], 15.1%; under setting [34], 14%; under setting [35], 11.1%.

Take `CC1COCCN1c1cc(C2(S(C)(=N)=O)CC2)nc(-c2ccnc3[nH]ccc23)n1` (stereo not given): the viability, T/C runs as follows: (compound 0.0316 µM) 103% and 90.3% and 112%; (compound 0.1 µM) 108% and 97% and 92.9%; (compound 0.316 µM) 92.2% and 95% and 95.2%; (compound 1 µM) 105% and 97.5% and 94.2%; (compound 3.16 µM) 89.7% and 90.8% and 96.2%; (compound 10 µM) 91.8% and 83.7% and 83.1%. Besides, the IC50 (curve of compound) was more than 10 µM.

For the compound `Nc1ncn(C2CC(O)C(CO)S2)c(=O)n1` (stereo not given), the viability, T/C (compound 0.000949 µM) was 94.5% and 95.6% and 104%; the viability, T/C (compound 0.003 µM) was 108% and 104% and 118%; the viability, T/C (compound 0.00949 µM) is 102% and 112% and 110%; the viability, T/C (compound 0.03 µM) was 107% and 101% and 116%; the viability, T/C (compound 0.0949 µM) was 103% and 105% and 100%; the viability, T/C (compound 0.3 µM) was 98.6% and 109% and 104%. Also, the IC50 (curve of compound) was more than 0.3 µM.

On to `Nc1ccccc1NC(=O)c1ccc(CNC(=O)OCc2cccnc2)cc1`, for which the viability, T/C by setting is: (compound 0.0316 µM) 91.6% and 84.4% and 104%; (compound 0.1 µM) 97.2% and 106% and 99.6%; (compound 0.316 µM) 105% and 112% and 109%; (compound 1 µM) 98% and 113% and 100%; (compound 3.16 µM) 43.9% and 84.1% and 51.4%; (compound 10 µM) 5.82% and 10.2% and 8.69%. The IC50 (curve of compound) is 2.78 µM and 5.37 µM and 3.28 µM.

Consider `NS(=O)(=O)OCC1CC(n2ccc3c(NC4CCc5ccccc54)ncnc32)CC1O` (stereo not given) + Cc1cncc(-c2nc(NCCc3c[nH]c4ccccc34)c3ncn(C(C)C)c3n2)c1, for which the IC50 under setting [1] amounted to 0.622 µM; the IC50 under setting [2] was determined as 0.523 µM; the IC50 under setting [3] was 0.515 µM; the IC50 under setting [4] came out at 0.203 µM; the IC50 under setting [5] was less than 0.0316 µM. The viability, T/C reads like this: under setting [6], 98.7%; under setting [7], 107%; under setting [8], 98.2%; under setting [9], 16.1%; under setting [10], 3.52%; under setting [11], 1.45%. Further, the viability, T/C by setting is: under setting [12], 103%; under setting [13], 101%; under setting [14], 81.4%; under setting [15], 9.63%; under setting [16], 2.6%; under setting [17], 2.07%. For the same compound, the viability, T/C is, setting by setting: under setting [18], 102%; under setting [19], 79.7%; under setting [20], 83.1%; under setting [21], 4.87%; under setting [22], 3.05%; under setting [23], 5.22%. The viability, T/C was 93.6% under setting [24]; 74.9% under setting [25]; 35.1% under setting [26]; 3.64% under setting [27]; 2.03% under setting [28]; 1% under setting [29]. The viability, T/C under setting [30] was 20.5%; the viability, T/C under setting [31] was 17.1%; the viability, T/C under setting [32] is 23.3%; the viability, T/C under setting [33] was 1.9%; the viability, T/C under setting [34] is 1.17%; the viability, T/C under setting [35] was 0.46%.

Turning to `Nc1ccccc1NC(=O)c1ccc(CNC(=O)OCc2cccnc2)cc1` + CC(CO)NC(=O)c1cc(-c2ccc(Cl)cc2)nn(-c2cnn(C)c2)c1=O, the IC50 stood at 2.28 µM under setting [1]; 2.24 µM under setting [2]; 3.93 µM under setting [3]; 1.94 µM under setting [4]; 1.32 µM under setting [5]. For the same compound, the viability, T/C is 97.6% under setting [6]; 92.2% under setting [7]; 87.1% under setting [8]; 91% under setting [9]; 33.8% under setting [10]; 3.08% under setting [11]. For the same compound, the viability, T/C under setting [12] was 102%; the viability, T/C under setting [13] is 91.4%; the viability, T/C under setting [14] was 99%; the viability, T/C under setting [15] is 78.2%; the viability, T/C under setting [16] is 37.9%; the viability, T/C under setting [17] is 5%. Besides, the viability, T/C was 88.8% under setting [18]; 96.7% under setting [19]; 105% under setting [20]; 96% under setting [21]; 60.7% under setting [22]; 3.71% under setting [23]. Also, the viability, T/C under setting [24] was 91.9%; the viability, T/C under setting [25] is 105%; the viability, T/C under setting [26] is 101%; the viability, T/C under setting [27] was 90.8%; the viability, T/C under setting [28] was 19.7%; the viability, T/C under setting [29] was 1.49%. Moreover, the viability, T/C was 97.1% under setting [30]; 82.9% under setting [31]; 87.9% under setting [32]; 62% under setting [33]; 11.8% under setting [34]; 0.6% under setting [35].

Regarding `COc1cc(C2c3cc4c(cc3C(OC3OC5COC(C)OC5C(O)C3O)C3COC(=O)C23)OCO4)cc(OC)c1O` (stereo not given), the viability, T/C (compound 0.0316 µM) is 101% and 87.7% and 99.6%; the viability, T/C (compound 0.1 µM) is 92.9% and 95.8% and 106%; the viability, T/C (compound 0.316 µM) was 98.6% and 95.4% and 95.7%; the viability, T/C (compound 1 µM) was 109% and 93.1% and 94.7%; the viability, T/C (compound 3.16 µM) is 91.3% and 92.4% and 110%; the viability, T/C (compound 10 µM) was 93.3% and 78.6% and 85.6%. Also, under “curve of compound”, the IC50 is more than 10 µM.

On to `NS(=O)(=O)OCC1CC(n2ccc3c(NC4CCc5ccccc54)ncnc32)CC1O` (stereo not given) + Cc1ccccc1N=Nc1ccc(NC(=O)c2ccnn2C)c(C)c1, for which the IC50 is, setting by setting: under setting [1], 0.409 µM; under setting [2], 0.442 µM; under setting [3], 0.395 µM; under setting [4], 0.475 µM; under setting [5], 0.637 µM. Moreover, the viability, T/C by setting is: under setting [6], 110%; under setting [7], 113%; under setting [8], 61.3%; under setting [9], 10.8%; under setting [10], 2.55%; under setting [11], 3.77%. Besides, the viability, T/C is, setting by setting: under setting [12], 125%; under setting [13], 96.6%; under setting [14], 68.1%; under setting [15], 16.6%; under setting [16], 3.6%; under setting [17], 2.37%. The viability, T/C reads like this: under setting [18], 116%; under setting [19], 103%; under setting [20], 58.2%; under setting [21], 15.8%; under setting [22], 3.88%; under setting [23], 3.13%. Besides, the viability, T/C is, setting by setting: under setting [24], 115%; under setting [25], 97.5%; under setting [26], 70.8%; under setting [27], 14.6%; under setting [28], 2.81%; under setting [29], 3.25%. The viability, T/C runs as follows: under setting [30], 109%; under setting [31], 108%; under setting [32], 83.6%; under setting [33], 28.6%; under setting [34], 4.02%; under setting [35], 3.01%.

Turning to `O=C(c1cc(Cc2n[nH]c(=O)c3ccccc23)ccc1F)N1CCN(C(=O)C2CC2)CC1`, the viability, T/C (compound 0.0316 µM) is 103% and 99.9% and 91.7%; the viability, T/C (compound 0.1 µM) is 97.6% and 103% and 104%; the viability, T/C (compound 0.316 µM) is 97.3% and 100% and 107%; the viability, T/C (compound 1 µM) was 108% and 113% and 102%; the viability, T/C (compound 3.16 µM) was 108% and 92.6% and 99.9%; the viability, T/C (compound 10 µM) was 93.2% and 85.1% and 76.2%. In addition, the IC50 (curve of compound) is more than 10 µM.
